Holding throughout (assay): NCI tumour cell line growth inhibition, 48 h
In assay [1] the test system is SF-539 CNS.
Assay [2] has as its system HL-60(TB) leukemia.
Assay [3] deals with CAKI-1 renal.
Assay [4] concerns UACC-62 melanoma.
Assay [5] has as its system HCT-116 colon.
Assay [6] deals with BT-549 breast.
For assay [7], the system named is HOP-92 NSCLC.
For assay [8], the system named is MALME-3M melanoma.
Assay [9] concerns SK-MEL-28 melanoma.
The test system of assay [10] is DU-145 prostate.

Each structure is given as a SMILES string.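 A five-concentration, 48-hour dose response in 96-well plates underlies each endpoint, interpolated linearly between surrounding concentrations. GI50 is the concentration that inhibits growth by half. TGI denotes the concentration required for complete inhibition of growth.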

For `COC(=O)C(=O)C(C(=O)C(=O)Nc1nc(=S)[nH][nH]1)c1nc2ccc([N+](=O)[O-])cc2[nH]c1=O` (stereo not given), the TGI in assay [1], in assay [2], in assay [3], in assay [4], in assay [5] and in [6] was over 100 µM throughout. Moreover, the TGI in [7], in assay [8] and in assay [9] was over 100 µM in each case.

`COc1ccc(OC)c(/C=C/C(=O)c2ccc3cc(OC)ccc3c2)c1`: the TGI in [10] was over 20.7 µM; in assay [1] it was over 12.6 µM; in assay [2], over 39.4 µM; in assay [3], 10.6 µM; in assay [4], over 12.2 µM; in assay [5] it was over 50 µM. Moreover, the TGI is over 37.4 µM in assay [6], over 50 µM in assay [7] and over 50 µM in assay [9]. Moreover, the GI50 was 4.93 µM in [2]; 1.2 µM in [3]; 5.52 µM in assay [4]; over 15 µM in assay [5]; 7.01 µM in assay [6]; 12.4 µM in assay [7]. Also, the GI50 in assay [9] is 3.74 µM.

In the case of `O=C(O)CSc1nnc2c3ccccc3c3ccccc3c2n1`, the TGI in assay [10], in assay [1], in assay [3], in assay [4], in [5] and in assay [6] was over 100 µM each time. The TGI in assay [7], in [8] and in [9] was over 100 µM throughout.

As for `C=C1C(OCCO)OC2O[C@]3(C)CCC4[C@H](C)CCC1C24OO3` (stereo not given in full), the GI50 in assay [10] is 36.3 µM; in assay [1] it was 36.6 µM; in assay [2] it was 3.1 µM; in assay [3], 19 µM; in assay [4], 42.7 µM; in assay [5] it was 8.69 µM. In addition, the GI50 in [6] was 10.8 µM; in [8], 52.7 µM; in assay [9], over 100 µM. The TGI in assay [10] was over 100 µM; in [1], over 100 µM; in [2], 15.6 µM; in assay [3], 40.5 µM; in assay [4], over 100 µM; in [5], over 100 µM. Also, the values for the TGI in assay [6], in assay [8] and in assay [9] were 71.2 µM, over 100 µM and over 100 µM, respectively.

In the case of `CCC(=O)Oc1ccc(/C=N/NC(N)=S)nc1`, the GI50 is 3.05 µM in assay [10]; 1.51 µM in assay [1]; 2.17 µM in assay [2]; 4.97 µM in assay [3]; 3.43 µM in [4]; 4.46 µM in assay [5]. The GI50 is 11.9 µM in assay [6], 6.86 µM in assay [8] and 34.3 µM in [9]. The TGI was over 100 µM in assay [10]; 5.52 µM in [1]; over 100 µM in assay [2]; over 100 µM in assay [3]; over 100 µM in [4]; over 100 µM in assay [5]. Besides, the TGI in assay [6], in assay [8] and in assay [9] was over 100 µM in each case.

`COn1cc(C(=O)N=C(SC)SC)c2ccccc21`: the GI50 in assay [10] is 30.9 µM; in assay [1], 18.7 µM; in assay [3] it was 22.7 µM; in assay [4] it was 20.2 µM; in [6], 19.2 µM; in assay [7] it was 27.7 µM. In assay [9], the GI50 was 80 µM. The TGI in assay [10] is over 100 µM; in [1] it was 43.4 µM; in [3], 63.8 µM; in assay [4], 55.8 µM; in [6] it was 63.3 µM; in assay [7], over 100 µM. For the same compound, in [9], the TGI is over 100 µM.

In the case of `CC(C)Cn1cnc2c(SCc3ccccn3)nc(N)nc21`, the TGI in assay [10], in assay [2], in assay [3], in assay [4], in [5] and in assay [6] was over 100 µM in each case. For the same compound, the TGI in [7], in assay [8] and in [9] was over 100 µM in each case.

For `Nc1nc(N)c(-c2ccc(Cl)cc2)c(/C=C/c2ccc([N+](=O)[O-])cc2)n1`, the GI50 is 6.66 µM in [10]; 7.15 µM in [1]; 5.64 µM in assay [2]; 4.92 µM in assay [3]; 3.97 µM in [5]; 13.1 µM in assay [6]. The GI50 in [9] is 26.6 µM. Further, the TGI was over 100 µM in [10]; 30 µM in [1]; over 100 µM in assay [2]; over 100 µM in assay [3]; over 100 µM in assay [5]; 90.3 µM in assay [6]. For the same compound, the TGI in assay [9] was over 100 µM.

Consider `O=C(Nc1ccc(N2CCNCC2)cn1)c1[nH]ncc1Nc1ncnc2sc3c(c12)CCC3`, for which the GI50 in assay [10] was 1.6 µM; in assay [2] it was 6.28 µM; in [3] it was 1.4 µM; in [4], 1.98 µM; in [5] it was 0.542 µM; in assay [6] it was 14.1 µM. Moreover, the GI50 in [7] was 4.69 µM. Also, the TGI worked out at 3.06 µM in assay [10]; 29.8 µM in assay [2]; 3.26 µM in [3]; 4.2 µM in [4]; 2.18 µM in assay [5]; 38.6 µM in [6]. Also, in assay [7], the TGI was over 100 µM.

In the case of `NCCNc1ncnc2ccc(Cl)cc12`, the TGI in assay [10], in [2], in assay [3], in assay [4], in assay [5] and in assay [6] was over 100 µM throughout. The TGI in assay [7], in [8] and in [9] was over 100 µM in each case.

As for `O=[N+]([O-])c1ccc2nc(=S)[nH]n2c1`, the TGI in assay [10], in assay [1], in assay [2], in [3], in [4] and in assay [5] was over 100 µM in each case. Moreover, the TGI in assay [6], in assay [7] and in [8] was over 100 µM each time.

Take `CC(=O)c1cccc(NC(=O)/C(=N\NC(=S)NN)C2C(=O)Nc3ccccc3S2=O)c1` (stereo not given): the TGI in assay [1], in assay [2], in [3], in assay [4], in assay [5] and in assay [6] was over 100 µM each time. The TGI in [7], in [8] and in [9] was over 100 µM throughout.

For `COc1ccc2c(c1)NC(=O)CN2c1nc(C)nc2ccccc12`, the TGI was over 100 µM in assay [10]; 0.00144 µM in assay [1]; 0.00151 µM in [2]; over 100 µM in assay [3]; over 100 µM in [4]; over 100 µM in assay [5]. The TGI in [7] and in assay [8] was over 100 µM in each case. Also, the GI50 in [1] was 0.000298 µM; in assay [2], 0.000361 µM; in assay [3] it was 0.000497 µM; in [4] it was 0.000432 µM; in assay [5] it was 0.000369 µM; in [6], 0.0021 µM. Further, the GI50 in assay [7] is 49.5 µM.

In the case of `COc1ccc(-c2cc(=O)c3cccnc3[nH]2)cc1`, the TGI in [10] is over 100 µM; in [1], over 100 µM; in assay [2], 57.1 µM; in assay [3], over 100 µM; in [4], 91.2 µM; in assay [5], 80.3 µM. Further, the TGI in [6], in assay [8] and in [9] was over 100 µM throughout. In addition, the results for the GI50 in [2] and in assay [5] were 13 µM and 17.6 µM, respectively.

Consider `CC(C)CC1NC(=O)C(C(C)C)NC(=O)CC(C)COC(=O)C(CC(C)C)N(C)C(=O)C(C(C)C)NC(=O)C(C(C)C)OC1=O` (stereo not given), for which the TGI in assay [10] was over 50 µM; in [1], 27.5 µM; in [3] it was over 50 µM; in [4], over 50 µM; in assay [5], over 50 µM; in assay [6], over 50 µM. The TGI in [7], in [8] and in assay [9] was over 50 µM in each case.

Turning to `COc1ccc(CNC(=O)c2c(C)n([O-])c3cc(F)c(F)cc3[n+]2=O)cc1`, the GI50 is 13.7 µM in [10]; 16.5 µM in [1]; 2.64 µM in assay [2]; 15 µM in [4]; 14.1 µM in [5]; 13.8 µM in assay [6]. Moreover, the figures for the GI50 in assay [7], in assay [8] and in [9] were 14.9 µM, 11.2 µM and 11.5 µM, respectively. The TGI was 26.5 µM in assay [10]; 30.6 µM in [1]; 12.2 µM in assay [2]; 28.5 µM in [4]; 27.1 µM in [5]; 26.8 µM in assay [6]. For the same compound, the values for the TGI in assay [7], in assay [8] and in assay [9] were 32 µM, 26.8 µM and 23.6 µM, respectively.

In the case of `CC1SC(c2cccc(Cl)c2)N(NC(=O)C(O)c2ccccc2)C1=O` (stereo not given), the GI50 was over 100 µM in assay [10]; over 100 µM in assay [1]; over 100 µM in assay [3]; 39 µM in assay [4]; over 100 µM in [5]; over 100 µM in [6]. In addition, the GI50 in assay [7], in assay [8] and in [9] was over 100 µM throughout. Besides, the TGI in assay [10], in [1], in assay [3], in assay [4], in [5] and in [6] was over 100 µM each time. The TGI in [7], in [8] and in assay [9] was over 100 µM each time.

Turning to `COc1ccc2c(c1)C(=O)c1c-2n(CCCNCCO)c(=O)c2cc([N+](=O)[O-])ccc12`, the GI50 in assay [10] is under 0.01 µM; in [1], under 0.01 µM; in assay [2] it was under 0.01 µM; in [3] it was under 0.01 µM; in [5], under 0.01 µM; in assay [6], 0.0226 µM. Moreover, the figures for the GI50 in [7] and in assay [9] were under 0.0108 µM and 0.0124 µM, respectively. For the same compound, the TGI in assay [1] is under 0.01 µM; in assay [2], 0.122 µM; in [3], 0.0602 µM; in [5] it was 0.192 µM; in [6], 1.21 µM; in assay [7], 0.149 µM. In [9], this compound came in with a TGI of 1.5 µM.

For `COC(=O)C1=C(O)C(C(=O)OC)[C@@]2(O)[C@@H](C(=O)OC)C(c3ccccc3Cl)C[C@@H]1[C@@H]2C(=O)OC` (stereo not given in full), the GI50 was 14.9 µM in assay [10]; 14 µM in [1]; 3.47 µM in assay [3]; 2.53 µM in assay [4]; 1.97 µM in assay [5]; 7.65 µM in assay [6]. Besides, the values for the GI50 in assay [7], in assay [8] and in [9] were 16.1 µM, 10.6 µM and 7.16 µM, respectively. For the same compound, the TGI in assay [10] turned out to be 32.9 µM; in [1], 36.7 µM; in assay [3], 11.2 µM; in assay [4] it was 6.89 µM; in assay [5], 4.12 µM; in [6], 33.8 µM. Also, the TGI in assay [7] stood at 54.2 µM; in assay [8] it was 29.9 µM; in [9], 30.4 µM.

On to `CCCCCCCCCCCCCCCC(N)c1ccccc1` (stereo not given), for which the GI50 is 1.75 µM in [10]; 1.69 µM in assay [1]; 1.37 µM in assay [2]; 1.53 µM in [3]; 1.66 µM in assay [4]; 1.63 µM in assay [6]. Also, the GI50 in [7] was 1.57 µM; in assay [8], 1.6 µM; in assay [9] it was 1.8 µM. The TGI in [10] amounted to 3.22 µM; in assay [1] it was 3.17 µM; in [2], 3.02 µM; in assay [3], 2.96 µM; in [4], 3.21 µM; in assay [6], 3.11 µM. The TGI in assay [7] is 3.23 µM; in assay [8], 3.28 µM; in assay [9], 3.48 µM.

For the origin of these results see PubChem BioAssay (NCI).
